Measurements published in ChEMBL document CHEMBL1782025, “Archazolid A-15-O-β-D-glucopyranoside and iso-archazolid B: potent V-ATPase inhibitory polyketides from the myxobacteria Cystobacter violaceus and Archangium gephyra” (J Nat Prod, 2011).

Key:
[1] = target: V-type proton ATPase subunit B (Manduca sexta, UniProt P31401); assay: Inhibition of Manduca sexta V-ATPase V1/Vo holoenzyme activity assessed as inorganic phosphate production pretreated for 5 mins
[2] = test system: L929; assay: Antiproliferative activity against mouse L929 cells assessed as growth inhibition after 5 days by MTT assay; assay type: functional; details: L929, 120 h
[3] = Antiproliferative activity against human KB-3-1 cells after 5 days by MTT assay; assay type: functional; details: KB 3-1, 120 h
[4] = test system: SK-OV-3; assay: Antiproliferative activity against human SKOV3 cells after 5 days by MTT assay; assay type: functional; details: SK-OV-3, 120 h
[5] = test system: A-431; assay: Antiproliferative activity against human A431 cells after 5 days by MTT assay; assay type: functional; details: A-431, 120 h
[6] = test system: U-937; assay: Antiproliferative activity against human U937 cells after 5 days by MTT assay; assay type: functional; details: U-937, 120 h
[7] = test system: MCF7; assay: Antiproliferative activity against human MCF7 cells after 5 days by MTT assay; assay type: functional; details: MCF7, 120 h
[8] = test system: PC-3; assay: Antiproliferative activity against human PC3 cells after 5 days by MTT assay; assay type: functional; details: PC-3, 120 h

Chain of V-type proton ATPase subunit B (P31401 whole entry): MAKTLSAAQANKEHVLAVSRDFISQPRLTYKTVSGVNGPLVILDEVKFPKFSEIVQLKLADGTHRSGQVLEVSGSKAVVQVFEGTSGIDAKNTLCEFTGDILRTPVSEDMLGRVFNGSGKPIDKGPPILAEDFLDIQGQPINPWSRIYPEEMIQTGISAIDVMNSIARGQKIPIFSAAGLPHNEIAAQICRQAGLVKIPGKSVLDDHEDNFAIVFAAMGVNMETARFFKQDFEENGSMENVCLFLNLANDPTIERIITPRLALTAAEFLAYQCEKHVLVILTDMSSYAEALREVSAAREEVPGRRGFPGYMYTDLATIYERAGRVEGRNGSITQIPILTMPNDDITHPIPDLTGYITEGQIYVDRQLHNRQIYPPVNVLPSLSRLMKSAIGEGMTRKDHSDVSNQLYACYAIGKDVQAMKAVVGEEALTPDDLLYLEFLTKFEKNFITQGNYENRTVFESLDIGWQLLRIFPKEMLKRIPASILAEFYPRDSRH

Work on `CNC(=O)O[C@@H](CC(C)C)c1nc([C@H]2OC(=O)/C(C)=C/C/C(C)=C/[C@@H](O[C@@H]3O[C@H](CO)[C@@H](O)[C@H](O)[C@H]3O)[C@@H](C)\C=C(C)/C=C(C)\C=C\[C@@H](O)[C@H](C)[C@H](OC)/C(C)=C/C=C/[C@@H]2C)cs1` [ARCHAZOLID C] yielded an IC50 [1] of 210 nmol/mg and a GI50 [2] of 1600 nM.

`CNC(=O)O[C@@H](CC(C)C)c1nc([C@H]2OC(=O)/C(C)=C/C/C(C)=C/[C@@H](O)[C@@H](C)\C=C(C)/C=C(C)\C=C\[C@@H](O)[C@H](C)[C@H](OC)/C(C)=C/C=C/[C@@H]2C)cs1` [ARCHAZOLID A] gave an IC50 [1] of 0.6 nmol/mg and a GI50 [2] of 0.81 nM.

In the case of `CNC(=O)O[C@@H](CC(C)C)c1nc([C@H]2OC(=O)C/C=C/C(C)=C/[C@@H](O)[C@@H](C)\C=C(C)/C=C(C)\C=C\[C@@H](O)[C@H](C)[C@H](OC)/C(C)=C/C=C/[C@@H]2C)cs1` [ARCHAZOLID F], the GI50 [3] is reported as 0.042 nM, the GI50 [4] is reported as 0.043 nM and the GI50 [5] is reported as 0.111 nM. The GI50 [6] was 0.038 nM, the IC50 [1] was 0.7 nmol/mg and the GI50 [7] was 0.131 nM. It also gave a GI50 [2] of 0.11 nM and a GI50 [8] of 0.053 nM.

Molecule `CNC(=O)O[C@@H](CC(C)C)c1nc([C@H]2OC(=O)/C=C/C/C(C)=C/[C@@H](O)[C@@H](C)\C=C(C)/C=C(C)\C=C\[C@@H](O)[C@H](C)[C@H](OC)/C(C)=C/C=C/[C@@H]2C)cs1` [ARCHAZOLID B] has an IC50 [1] of 0.6 nmol/mg and a GI50 [2] of 1.1 nM.

Work on `CNC(=O)O[C@@H](CC(C)C)c1nc([C@H]2OC(=O)/C(C)=C/C/C(C)=C/[C@@H](O[C@@H]3O[C@H](CO)[C@@H](O)[C@H](O)[C@H]3O)[C@@H](C)\C=C(CO)/C=C(C)\C=C\[C@@H](O)[C@H](C)[C@H](OC)/C(C)=C/C=C/[C@@H]2C)cs1` [ARCHAZOLID D] yielded an IC50 [1] of 1200 nmol/mg and a GI50 [2] of 330 nM.

Work on `CNC(=O)O[C@@H](CC(C)C)c1nc([C@H]2OC(=O)/C(C)=C/C/C(C)=C/[C@@H](O)[C@@H](C)\C=C(C)/C=C(C)\C=C\[C@@H](O[C@@H]3O[C@H](CO)[C@@H](O)[C@H](O)[C@H]3O)[C@H](C)[C@H](OC)/C(C)=C/C=C/[C@@H]2C)cs1` [ARCHAZOLID E] yielded a GI50 [2] of 510 nM.
